Data: US20170000133A1, “BENZOXABOROLE FUNGICIDES” (SYNGENTA PARTICIPATIONS AG, priority 2013, published 2017)

System: Gaeumannomyces graminis
Assay: Gaeumannomyces graminis / liquid culture (take-all of cereals)
Type: cell-based
Details: PDB potato dextrose broth, 24° C., 4-5 days after application, read-out: disease control (inhibition of growth determined photometrically)
Summary of the method: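 Cryo-stored mycelial fragments in potato dextrose broth exposed to compound in DMSO at 200 ppm. Incubated at 24 °C; growth inhibition read photometrically 4–5 days after application.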

Q: With `O=C(OCc1ccsc1)c1ccc2c(c1)B(O)OC2` [Compound 50] as the compound, how does the inhibition at 200 ppm read?
A: Its inhibition at 200 ppm is at least 80%.

Q: Which inhibition at 200 ppm does the source give for `C[Si](C)(C)CCCOC(=O)c1cc2c(cc1Cl)COB2O` [Compound 194] here?
A: The inhibition at 200 ppm was at least 80%.

Q: Which inhibition at 200 ppm does the source give for `C#CC(CC)OC(=O)c1cc2c(cc1Cl)COB2O` (centres unmarked) [Compound 201] here?
A: Its inhibition at 200 ppm is at least 80%.

Q: For `O=C(OCc1cccc2ccccc12)c1cc2c(cc1Cl)COB2O` [Compound 207], which inhibition at 200 ppm is on record?
A: Its inhibition at 200 ppm is at least 80%.

Q: For `C=CCOC(=O)c1cc2c(cc1Cl)COB2O` [Compound 215], which inhibition at 200 ppm is on record?
A: Its inhibition at 200 ppm is at least 80%.

System: Thanatephorus cucumeris (Rhizoctonia solani)
Assay: Thanatephorus cucumeris (Rhizoctonia solani) / liquid culture (foot rot, damping-off)
Type: cell-based
Details: PDB potato dextrose broth, 24° C., 3-4 days after application, read-out: disease control (inhibition of growth determined photometrically)
Summary of the method: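 Mycelial fragments from fresh liquid culture were suspended in potato dextrose broth and added to compound in DMSO at 200 ppm. After 3-4 days at 24 °C, growth inhibition was measured photometrically.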

Q: With `O=C(OCc1ccsc1)c1ccc2c(c1)B(O)OC2` [Compound 50] as the compound, how does the inhibition at 200 ppm read?
A: The inhibition at 200 ppm was at least 80%.

Q: For `C=CCOC(=O)c1cc2c(cc1Cl)COB2O` [Compound 215], which inhibition at 200 ppm is on record?
A: The inhibition at 200 ppm was at least 80%.

System: Sclerotinia sclerotiorum
Assay: Sclerotinia sclerotiorum / liquid culture (cottony rot)
Type: cell-based
Details: PDB potato dextrose broth, 24° C., 3-4 days after application, read-out: disease control (inhibition of growth determined visually)
Protocol: 18. Sclerotinia sclerotiorum/Liquid Culture (Cottony Rot): Mycelia fragments of a newly grown liquid culture of the fungus were directly mixed into nutrient broth (PDB potato dextrose broth). After placing a (DMSO) solution of the test compounds into a microtiter plate (96-well format) the nutrient broth containing the fungal material was added. The test plates were incubated at 24° C. and the inhibition of growth was determined visually 3-4 days after application.

Q: For `C=CCOC(=O)c1cc2c(cc1Cl)COB2O` [Compound 215], which inhibition at 200 ppm is on record?
A: Its inhibition at 200 ppm is at least 80%.

System: Fusarium culmorum
Assay: microbe, parasite or virus in culture
Type: cell-based
Details: read-out: disease control (inhibition of growth determined visually)

Q: For `O=C(OCc1ccsc1)c1ccc2c(c1)B(O)OC2` [Compound 50], which inhibition at 200 ppm is on record?
A: Its inhibition at 200 ppm is at least 80%.

Q: Which inhibition at 200 ppm does the source give for `C=CCOC(=O)c1cc2c(cc1Cl)COB2O` [Compound 215] here?
A: Its inhibition at 200 ppm is at least 80%.

System: not given
Assay: not given
Details: not given

Q: For `O=C(OCc1ccsc1)c1ccc2c(c1)B(O)OC2` [Compound 50], which melting point is on record?
A: The melting point was 130 to 132 °C.

System: Monographella nivalis (Microdochium nivale)
Assay: Monographella nivalis (Microdochium nivale) / liquid culture (foot rot cereals)
Type: cell-based
Details: PDB potato dextrose broth, 24° C., 4-5 days after application, read-out: disease control (inhibition of growth determined photometrically)

Q: Which inhibition at 200 ppm does the source give for `O=C(OCc1ccsc1)c1ccc2c(c1)B(O)OC2` [Compound 50] here?
A: Its inhibition at 200 ppm is at least 80%.

Q: Which inhibition at 200 ppm does the source give for `C[Si](C)(C)CCCOC(=O)c1cc2c(cc1Cl)COB2O` [Compound 194] here?
A: The inhibition at 200 ppm was at least 80%.

Q: With `C#CC(CC)OC(=O)c1cc2c(cc1Cl)COB2O` (centres unmarked) [Compound 201] as the compound, how does the inhibition at 200 ppm read?
A: The inhibition at 200 ppm was at least 80%.

Q: With `O=C(OCc1cccc2ccccc12)c1cc2c(cc1Cl)COB2O` [Compound 207] as the compound, how does the inhibition at 200 ppm read?
A: The inhibition at 200 ppm was at least 80%.

Q: Which inhibition at 200 ppm does the source give for `C=CCOC(=O)c1cc2c(cc1Cl)COB2O` [Compound 215] here?
A: Its inhibition at 200 ppm is at least 80%.

System: Phytophthora infestans
Assay: whole plant or invertebrate
Type: in vivo
Details: in Solanum lycopersicum, foliar, read-out: disease control

Q: For `O=C(OCc1cccc2ccccc12)c1cc2c(cc1Cl)COB2O` [Compound 207], which pest or weed control at 200 ppm is on record?
A: The pest or weed control at 200 ppm was at least 80%.

System: Mycosphaerella arachidis (Cercospora arachidicola)
Assay: Mycosphaerella arachidis (Cercospora arachidicola) / liquid culture (early leaf spot)
Type: cell-based
Details: PDB potato dextrose broth, 24° C., 4-5 days after application, read-out: disease control (inhibition of growth determined photometrically)
Summary of the method: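 Conidia from cryogenic storage mixed into potato dextrose broth and added to compound at 200 ppm in DMSO. Incubation at 24° C.; growth inhibition read photometrically 4-5 days after application.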

Q: With `O=C(OCc1ccsc1)c1ccc2c(c1)B(O)OC2` [Compound 50] as the compound, how does the inhibition at 200 ppm read?
A: Its inhibition at 200 ppm is at least 80%.

Q: For `C[Si](C)(C)CCCOC(=O)c1cc2c(cc1Cl)COB2O` [Compound 194], which inhibition at 200 ppm is on record?
A: The inhibition at 200 ppm was at least 80%.

Q: For `C=CCOC(=O)c1cc2c(cc1Cl)COB2O` [Compound 215], which inhibition at 200 ppm is on record?
A: Its inhibition at 200 ppm is at least 80%.

System: Glomerella lagenarium (Colletotrichum lagenarium)
Assay: Glomerella lagenarium (Colletotrichum lagenarium) / liquid culture (anthracnose)
Type: cell-based
Details: Colletotrichum orbiculare, PDB potato dextrose broth, 24° C., 3-4 days after application, read-out: disease control (inhibition of growth measured photometrically)
Summary of the method: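 Conidia of G. lagenarium from cryogenic storage were suspended in potato dextrose broth and added to test compound in DMSO at 200 ppm. Plates were incubated at 24° C, and growth inhibition was read photometrically 3-4 days after application.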

Q: With `O=C(OCc1ccsc1)c1ccc2c(c1)B(O)OC2` [Compound 50] as the compound, how does the inhibition at 200 ppm read?
A: Its inhibition at 200 ppm is at least 80%.

Q: With `C[Si](C)(C)CCCOC(=O)c1cc2c(cc1Cl)COB2O` [Compound 194] as the compound, how does the inhibition at 200 ppm read?
A: Its inhibition at 200 ppm is at least 80%.

Q: Which inhibition at 200 ppm does the source give for `C#CC(CC)OC(=O)c1cc2c(cc1Cl)COB2O` (centres unmarked) [Compound 201] here?
A: Its inhibition at 200 ppm is at least 80%.

Q: With `C=CCOC(=O)c1cc2c(cc1Cl)COB2O` [Compound 215] as the compound, how does the inhibition at 200 ppm read?
A: The inhibition at 200 ppm was at least 80%.

System: Plasmopara viticola
Assay: whole plant or invertebrate
Type: in vivo
Details: foliar, read-out: disease control

Q: Which pest or weed control at 200 ppm does the source give for `O=C(OCc1ccsc1)c1ccc2c(c1)B(O)OC2` [Compound 50] here?
A: Its pest or weed control at 200 ppm is at least 80%.

Q: With `C#CC(CC)OC(=O)c1cc2c(cc1Cl)COB2O` (centres unmarked) [Compound 201] as the compound, how does the pest or weed control at 200 ppm read?
A: Its pest or weed control at 200 ppm is at least 80%.

System: Botryotinia fuckeliana (Botrytis cinerea)
Assay: Botryotinia fuckeliana (Botrytis cinerea) / liquid culture (gray mould)
Type: cell-based
Details: Vogels broth, 24° C., 3-4 days after application, read-out: disease control (inhibition of growth determined photometrically)
Protocol: 10. Botryotinia fuckeliana (Botrytis cinerea)/Liquid Culture (Gray Mould): Conidia of the fungus from cryogenic storage were directly mixed into nutrient broth (Vogels broth). After placing a DMSO solution of test compound into a 96-well microtiter plate at an application rate of 200 ppm, the nutrient broth containing the fungal spores was added. The test plates were incubated at 24° C. and the inhibition of growth was determined photometrically 3-4 days after application.

Q: With `C[Si](C)(C)CCCOC(=O)c1cc2c(cc1Cl)COB2O` [Compound 194] as the compound, how does the inhibition at 200 ppm read?
A: The inhibition at 200 ppm was at least 80%.

Q: For `C#CC(CC)OC(=O)c1cc2c(cc1Cl)COB2O` (centres unmarked) [Compound 201], which inhibition at 200 ppm is on record?
A: Its inhibition at 200 ppm is at least 80%.

System: Puccinia recondita f. sp. tritici
Assay: Puccinia recondita f. sp. tritici / wheat / leaf disc preventative (brown rust)
Type: in vivo
Details: foliar, wheat leaf segments cv Kanzler, inoculated 1 day after application, assessed 7-9 days after application, read-out: disease control
Text: 3. Puccinia recondita f. sp. tritici/Wheat/Leaf Disc Preventative (Brown Rust): Wheat leaf segments cultivated variety (cv) Kanzler were placed on agar in 24-well plates and sprayed with formulated test compound diluted in water at an application rate of 200 ppm. The leaf disks were inoculated with a spore suspension of the fungus 1 day after application.

Q: For `O=C(OCc1ccsc1)c1ccc2c(c1)B(O)OC2` [Compound 50], which pest or weed control at 200 ppm is on record?
A: Its pest or weed control at 200 ppm is at least 80%.

Q: Which pest or weed control at 200 ppm does the source give for `O=C(OCc1cccc2ccccc12)c1cc2c(cc1Cl)COB2O` [Compound 207] here?
A: The pest or weed control at 200 ppm was at least 80%.

System: Pythium ultimum
Assay: Pythium ultimum / liquid culture (seedling damping off)
Type: cell-based
Details: Globisporangium ultimum; 200 ppm; potato dextrose broth, 24° C., 2-3 days after application; read-out: disease control (inhibition of growth determined photometrically)

Q: With `O=C(OCc1ccsc1)c1ccc2c(c1)B(O)OC2` [Compound 50] as the compound, how does the inhibition at 200 ppm read?
A: The inhibition at 200 ppm was at least 80%.

Q: With `C#CC(CC)OC(=O)c1cc2c(cc1Cl)COB2O` (centres unmarked) [Compound 201] as the compound, how does the inhibition at 200 ppm read?
A: Its inhibition at 200 ppm is at least 80%.

Q: With `O=C(OCc1cccc2ccccc12)c1cc2c(cc1Cl)COB2O` [Compound 207] as the compound, how does the inhibition at 200 ppm read?
A: The inhibition at 200 ppm was at least 80%.

Q: Which inhibition at 200 ppm does the source give for `C=CCOC(=O)c1cc2c(cc1Cl)COB2O` [Compound 215] here?
A: The inhibition at 200 ppm was at least 80%.

System: Mycosphaerella graminicola (Septoria tritici)
Assay: Mycosphaerella graminicola (Septoria tritici) / liquid culture (Septoria blotch)
Type: cell-based
Details: Zymoseptoria tritici, PDB potato dextrose broth, 24° C., 4-5 days after application, read-out: disease control (inhibition of growth determined photometrically)
Summary of the method: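 Conidia from cryostorage were suspended in potato dextrose broth and added to test compound in DMSO at 200 ppm in microtiter wells. Plates were incubated at 24° C and growth inhibition measured photometrically 4-5 days after application.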

Q: For `O=C(OCc1ccsc1)c1ccc2c(c1)B(O)OC2` [Compound 50], which inhibition at 200 ppm is on record?
A: The inhibition at 200 ppm was at least 80%.

Q: Which inhibition at 200 ppm does the source give for `C[Si](C)(C)CCCOC(=O)c1cc2c(cc1Cl)COB2O` [Compound 194] here?
A: Its inhibition at 200 ppm is at least 80%.

Q: For `C#CC(CC)OC(=O)c1cc2c(cc1Cl)COB2O` (centres unmarked) [Compound 201], which inhibition at 200 ppm is on record?
A: Its inhibition at 200 ppm is at least 80%.

Q: For `C=CCOC(=O)c1cc2c(cc1Cl)COB2O` [Compound 215], which inhibition at 200 ppm is on record?
A: The inhibition at 200 ppm was at least 80%.
